Earlier results in patent US10376473B2, “Transdermal adhesive compositions, devices, and methods” (priority 2010, dated 2019).
Like-named read-outs stand apart in the source and are kept apart here.

Conditions: after 2 months at 60° C.

## CCN(C)C(=O)Oc1cccc([C@H](C)N(C)C)c1 [(S)—N-ethyl-3-[(1-dimethylamino)ethyl]-N-methylphenyl carbamate]
Composition with 0.1% tocopherol (antioxidant)
  degradation products: 1.3%
Composition without the antioxidant
  degradation products: 4.46%
